Patent US9062124B2, “GIP-based mixed agonists for treatment of metabolic disorders and obesity” (priority 2008, dated 2015)
Where a SMILES comes first, the peptide text is derived from it. Bridges are numbered along the chain shown (N, C = ends). [ ]: non-standard residue; d: D form. Aib = CC(C)(N)C(=O)O

Assays:
Format in all cases: cell-based
GLP-1 receptor = molecular target: T1, GLP-1 receptor (Homo sapiens, UniProt P43220); test: cAMP synthesis functional assay (firefly luciferase reporter in HEK293 cells), GLP-1 receptor; conditions: Table 1; for GLP-1 Receptor relative activity: relative to the native hormone of the indicated receptor; for EC50: GLP-1 Receptor EC50, nM
T1 construct: expressed in transfected cells; host or cells: HEK293

GIP receptor = molecular target: T2, GIP receptor (Homo sapiens, UniProt P48546); test: cAMP synthesis functional assay (firefly luciferase reporter in HEK293 cells), GIP receptor; conditions: Table 1; for GIP Receptor relative activity: relative to the native hormone of the indicated receptor
T2 construct: expressed in transfected cells; host or cells: HEK293
T2 sequence (P48546 22-466): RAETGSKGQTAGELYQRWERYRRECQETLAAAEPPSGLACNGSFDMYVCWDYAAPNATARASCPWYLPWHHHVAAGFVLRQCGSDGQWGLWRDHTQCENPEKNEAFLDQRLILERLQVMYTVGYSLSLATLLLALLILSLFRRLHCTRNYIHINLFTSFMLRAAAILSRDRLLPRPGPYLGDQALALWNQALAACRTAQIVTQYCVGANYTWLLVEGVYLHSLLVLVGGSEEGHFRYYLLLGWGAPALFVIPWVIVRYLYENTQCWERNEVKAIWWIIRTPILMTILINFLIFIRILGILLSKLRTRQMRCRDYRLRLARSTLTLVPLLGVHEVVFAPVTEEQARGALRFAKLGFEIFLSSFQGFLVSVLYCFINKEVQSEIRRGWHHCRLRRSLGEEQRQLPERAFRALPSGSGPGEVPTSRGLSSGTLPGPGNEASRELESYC

glucagon receptor = molecular target: T3, glucagon receptor (Homo sapiens, UniProt P47871); test: cAMP synthesis functional assay (firefly luciferase reporter in HEK293 cells), glucagon receptor; conditions: Table 1; relative to the native hormone of the indicated receptor
T3 construct: expressed in transfected cells; host or cells: HEK293

[1] = test system: glucagon receptor, GLP-1 receptor or GIP receptor; test: Agonist profile across receptors assigned from the cAMP reporter assay data; conditions: assigned from the in vitro EC50 data of Tables 1-4

T3 sequence (P47871 26-477): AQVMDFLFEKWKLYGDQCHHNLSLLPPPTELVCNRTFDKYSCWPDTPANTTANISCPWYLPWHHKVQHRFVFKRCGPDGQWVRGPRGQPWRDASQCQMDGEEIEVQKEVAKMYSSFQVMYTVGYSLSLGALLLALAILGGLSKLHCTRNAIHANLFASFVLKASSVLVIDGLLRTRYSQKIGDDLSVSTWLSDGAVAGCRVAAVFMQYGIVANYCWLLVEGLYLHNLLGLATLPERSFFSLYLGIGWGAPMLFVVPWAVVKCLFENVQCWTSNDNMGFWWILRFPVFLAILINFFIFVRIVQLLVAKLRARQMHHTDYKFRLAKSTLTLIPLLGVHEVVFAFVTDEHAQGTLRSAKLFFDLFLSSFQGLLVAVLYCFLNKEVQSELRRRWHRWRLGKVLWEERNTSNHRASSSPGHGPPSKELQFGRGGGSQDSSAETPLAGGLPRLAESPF
T1 sequence (P43220 24-463, species assumed): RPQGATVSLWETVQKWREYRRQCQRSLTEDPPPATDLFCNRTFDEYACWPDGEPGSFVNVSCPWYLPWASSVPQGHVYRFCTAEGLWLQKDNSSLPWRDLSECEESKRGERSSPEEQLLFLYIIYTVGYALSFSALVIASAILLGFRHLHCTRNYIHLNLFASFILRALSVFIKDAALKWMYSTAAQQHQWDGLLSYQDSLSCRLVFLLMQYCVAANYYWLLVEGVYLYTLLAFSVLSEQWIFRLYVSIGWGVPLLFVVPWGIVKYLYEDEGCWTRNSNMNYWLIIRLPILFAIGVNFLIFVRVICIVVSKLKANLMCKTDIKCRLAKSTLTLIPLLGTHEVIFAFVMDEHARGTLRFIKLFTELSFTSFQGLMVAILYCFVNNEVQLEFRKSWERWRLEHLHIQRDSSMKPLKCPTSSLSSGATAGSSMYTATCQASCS

EC50 (GIP receptor; GIP Receptor EC50, nM) [nM] | Compound | GLP-1 Receptor relative activity (GLP-1 receptor) [%] | GIP Receptor relative activity (GIP receptor) [%] | Glucagon Receptor relative activity (glucagon receptor) [%] | receptor activity profile (glucagon / GLP-1 / GIP agonism) [1] | EC50 (GLP-1 receptor) [nM]
– | CC[C@H](C)[C@H](NC(=O)[C@H](CO)NC(=O)[C@H](Cc1ccc(O)cc1)NC(=O)[C@H](CC(=O)O)NC(=O)[C@H](CO)NC(=O)[C@@H](NC(=O)[C@H](Cc1ccccc1)NC(=O)[C@@H](NC(=O)CNC(=O)[C@H](CCC(N)=O)NC(=O)C(C)(C)NC(=O)[C@@H](N)Cc1ccc(O)cc1)[C@@H](C)O)[C@@H](C)O)C(=O)N[C@@H](Cc1ccc(O)cc1)C(=O)N[C@@H](CC(C)C)C(=O)N[C@@H](CC(=O)O)C(=O)N[C@H]1CCC(=O)NCCCC[C@@H](C(=O)N[C@@H](CCC(=O)O)C(=O)N[C@@H](Cc2ccccc2)C(=O)N[C@H](C(=O)N[C@@H](CC(N)=O)C(=O)N[C@@H](Cc2c[nH]c3ccccc23)C(=O)N[C@@H](CC(C)C)C(=O)N[C@@H](CC(C)C)C(=O)N[C@@H](C)C(=O)NCC(=O)NCC(=O)N2CCC[C@H]2C(=O)N[C@@H](CO)C(=O)N[C@@H](CO)C(=O)NCC(=O)N[C@@H](C)C(=O)N2CCC[C@H]2C(=O)N2CCC[C@H]2C(=O)N2CCC[C@H]2C(=O)N[C@@H](CO)C(N)=O)C(C)C)NC(=O)[C@H](C)NC(=O)[C@H](C)NC(=O)[C@H](CCC(N)=O)NC1=O [mt-152] (H-Y[Aib]QGTFTSDYSIYLDEQAAKEFVNWLLAGGPSSGAPPPS-NH2; lactam 16-20; N-terminus assumed) | 168.75 | 41.19 | 36.52 | exemplary GLP-1/GIP/glucagon triagonist peptides | –
– | CC[C@H](C)[C@H](NC(=O)[C@H](CO)NC(=O)[C@H](Cc1ccc(O)cc1)NC(=O)[C@H](CC(=O)O)NC(=O)[C@H](CO)NC(=O)[C@@H](NC(=O)[C@H](Cc1ccccc1)NC(=O)[C@@H](NC(=O)CNC(=O)[C@H](CCC(N)=O)NC(=O)C(C)(C)NC(=O)[C@@H](N)Cc1ccc(O)cc1)[C@@H](C)O)[C@@H](C)O)C(=O)N[C@@H](Cc1ccc(O)cc1)C(=O)N[C@@H](CC(C)C)C(=O)N[C@@H](CC(=O)O)C(=O)N[C@H]1CCC(=O)NCCCC[C@@H](C(=O)N[C@@H](CCC(=O)O)C(=O)N[C@@H](Cc2ccccc2)C(=O)N[C@H](C(=O)N[C@@H](CS)C(=O)N[C@@H](Cc2c[nH]c3ccccc23)C(=O)N[C@@H](CC(C)C)C(=O)N[C@@H](CC(C)C)C(=O)N[C@@H](C)C(=O)NCC(=O)NCC(=O)N2CCC[C@H]2C(=O)N[C@@H](CO)C(=O)N[C@@H](CO)C(=O)NCC(=O)N[C@@H](C)C(=O)N2CCC[C@H]2C(=O)N2CCC[C@H]2C(=O)N2CCC[C@H]2C(=O)N[C@@H](CO)C(N)=O)C(C)C)NC(=O)[C@H](C)NC(=O)[C@H](C)NC(=O)[C@H](CCC(N)=O)NC1=O [mt-158] (H-Y[Aib]QGTFTSDYSIYLDEQAAKEFVCWLLAGGPSSGAPPPS-NH2; lactam 16-20; N-terminus assumed) | 102.94 | 17.82 | 14.90 | exemplary GLP-1/GIP/glucagon triagonist peptides | –
– | CC[C@H](C)[C@H](NC(=O)[C@H](CC(C)C)NC(=O)[C@H](Cc1c[nH]c2ccccc12)NC(=O)[C@H](CC(N)=O)NC(=O)[C@@H](NC(=O)[C@H](Cc1ccccc1)NC(=O)[C@H](CCC(=O)O)NC(=O)[C@@H]1CCCCNC(=O)CC[C@H](NC(=O)[C@H](CC(=O)O)NC(=O)[C@H](CC(C)C)NC(=O)[C@H](Cc2ccc(O)cc2)NC(=O)[C@H](Cc2ccc(O)cc2)NC(=O)[C@H](CO)NC(=O)[C@H](Cc2ccc(O)cc2)NC(=O)[C@H](CC(=O)O)NC(=O)[C@H](CO)NC(=O)[C@@H](NC(=O)[C@H](Cc2ccccc2)NC(=O)[C@@H](NC(=O)CNC(=O)[C@H](CCC(N)=O)NC(=O)C(C)(C)NC(=O)[C@@H](N)Cc2ccc(O)cc2)[C@@H](C)O)[C@@H](C)O)C(=O)N[C@@H](CCC(N)=O)C(=O)N[C@@H](C)C(=O)N[C@@H](C(C)C)C(=O)N1)C(C)C)C(=O)N[C@@H](C)C(=O)NCC(=O)NCC(=O)N1CCC[C@H]1C(=O)N[C@@H](CO)C(=O)N[C@@H](CO)C(=O)NCC(=O)N[C@@H](C)C(=O)N1CCC[C@H]1C(=O)N1CCC[C@H]1C(=O)N1CCC[C@H]1C(=O)N[C@@H](CO)C(N)=O [mt-162] (H-Y[Aib]QGTFTSDYSYYLDEQAVKEFVNWLIAGGPSSGAPPPS-NH2; lactam 16-20; N-terminus assumed) | 109.09 | 25.74 | 0.97 | exemplary GLP-1/GIP co-agonist peptides | 0.011
0.164 | CC[C@H](C)[C@H](NC(=O)[C@H](CO)NC(=O)[C@H](Cc1ccc(O)cc1)NC(=O)[C@H](CC(=O)O)NC(=O)[C@H](CO)NC(=O)[C@@H](NC(=O)[C@H](Cc1ccccc1)NC(=O)[C@@H](NC(=O)CNC(=O)[C@H](CCC(N)=O)NC(=O)C(C)(C)NC(=O)[C@@H](N)Cc1ccc(O)cc1)[C@@H](C)O)[C@@H](C)O)C(=O)N[C@@H](Cc1ccc(O)cc1)C(=O)N[C@@H](CC(C)C)C(=O)N[C@@H](CC(=O)O)C(=O)N[C@H]1CCC(=O)NCCCC[C@@H](C(=O)N[C@@H](CCC(=O)O)C(=O)N[C@@H](Cc2ccccc2)C(=O)N[C@H](C(=O)N[C@@H](CC(N)=O)C(=O)N[C@@H](Cc2c[nH]c3ccccc23)C(=O)N[C@@H](CC(C)C)C(=O)N[C@@H](CC(C)C)C(=O)N[C@@H](C)C(=O)NCC(N)=O)C(C)C)NC(=O)[C@H](C)NC(=O)[C@H](C)NC(=O)[C@H](CCC(N)=O)NC1=O [mt-164] (H-Y[Aib]QGTFTSDYSIYLDEQAAKEFVNWLLAG-NH2; lactam 16-20; N-terminus assumed) | 56.52 | 16.46 | 109.93 | exemplary GLP-1/GIP/glucagon triagonist peptides | –
– | CC[C@H](C)[C@H](NC(=O)[C@H](CO)NC(=O)[C@H](Cc1ccc(O)cc1)NC(=O)[C@H](CC(=O)O)NC(=O)[C@H](CO)NC(=O)[C@@H](NC(=O)[C@H](Cc1ccccc1)NC(=O)[C@@H](NC(=O)CNC(=O)[C@H](CCC(N)=O)NC(=O)C(C)(C)NC(=O)[C@@H](N)Cc1ccc(O)cc1)[C@@H](C)O)[C@@H](C)O)C(=O)N[C@@H](Cc1ccc(O)cc1)C(=O)N[C@@H](CC(C)C)C(=O)N[C@@H](CC(=O)O)C(=O)N[C@H]1CCC(=O)NCCCC[C@@H](C(=O)N[C@@H](CCC(=O)O)C(=O)N[C@@H](Cc2ccccc2)C(=O)N[C@H](C(=O)N[C@@H](CC(N)=O)C(=O)N[C@@H](Cc2c[nH]c3ccccc23)C(=O)N[C@@H](CC(C)C)C(=O)N[C@@H](CC(C)C)C(=O)N[C@@H](C)C(=O)NCC(=O)NCC(=O)N2CCC[C@H]2C(=O)N[C@@H](CO)C(=O)N[C@@H](CO)C(=O)NCC(=O)N[C@@H](C)C(=O)N2CCC[C@H]2C(=O)N2CCC[C@H]2C(=O)N2CCC[C@H]2C(=O)N[C@@H](CO)C(=O)N[C@@H](CS)C(N)=O)C(C)C)NC(=O)[C@H](C)NC(=O)[C@H](C)NC(=O)[C@H](CCC(N)=O)NC1=O [mt-165] (H-Y[Aib]QGTFTSDYSIYLDEQAAKEFVNWLLAGGPSSGAPPPSC-NH2; lactam 16-20; N-terminus assumed) | 147.83 | 27.03 | 18.81 | exemplary GLP-1/GIP/glucagon triagonist peptides | 0.023
– | CC[C@H](C)[C@H](NC(=O)[C@H](CO)NC(=O)[C@H](Cc1ccc(O)cc1)NC(=O)[C@H](CC(=O)O)NC(=O)[C@H](CO)NC(=O)[C@@H](NC(=O)[C@H](Cc1ccccc1)NC(=O)[C@@H](NC(=O)CNC(=O)[C@H](CCC(N)=O)NC(=O)[C@@H](C)NC(=O)[C@@H](N)Cc1ccc(O)cc1)[C@@H](C)O)[C@@H](C)O)C(=O)N[C@@H](Cc1ccc(O)cc1)C(=O)N[C@@H](CC(C)C)C(=O)N[C@@H](CC(=O)O)C(=O)N[C@H]1CCC(=O)NCCCC[C@@H](C(=O)N[C@@H](CCC(=O)O)C(=O)N[C@@H](Cc2ccccc2)C(=O)N[C@H](C(=O)N[C@@H](CC(N)=O)C(=O)N[C@@H](Cc2c[nH]c3ccccc23)C(=O)N[C@@H](CC(C)C)C(=O)N[C@@H](CC(C)C)C(=O)N[C@@H](C)C(=O)NCC(=O)NCC(=O)N2CCC[C@H]2C(=O)N[C@@H](CO)C(=O)N[C@@H](CO)C(=O)NCC(=O)N[C@@H](C)C(=O)N2CCC[C@H]2C(=O)N2CCC[C@H]2C(=O)N2CCC[C@H]2C(=O)N[C@@H](CO)C(=O)N[C@@H](CS)C(N)=O)C(C)C)NC(=O)[C@H](C)NC(=O)[C@H](C)NC(=O)[C@H](CCC(N)=O)NC1=O [mt-166] (H-Y[dA]QGTFTSDYSIYLDEQAAKEFVNWLLAGGPSSGAPPPSC-NH2; lactam 16-20; N-terminus assumed) | 26.87 | 5.94 | 9.83 | exemplary GLP-1/GIP/glucagon triagonist peptides | –
